The source of these data is US9969887B2, “Merocyanine-based compounds, and dyes, kits and contrast medium compositions for labelling biomolecules comprising the same” (SFC CO., LTD., priority 2016, dated 2018).

A short description of one data set: Photobleaching test. To be noted: low concentration. The class given is physicochemical. The procedure:
Real-Time PCR was performed in a 20 μL reaction solution containing only 5 μL of fluorescent dyes (Compound 38, SYBR® green I (Invitrogen) or EvaGreen™ (Biotium)) at various concentrations (dilution times). Cycles of 30 seconds at 25° C. and 30 seconds at 25° C. were repeated 60 times. Fluorescence intensity was measured for each cycle (1 minute) to observe photobleaching of fluorescent dyes at various concentrations (dilution times).

The nature of data set [1]: Absorption and emission spectra, molar extinction coefficient and quantum efficiency in solvent. It counts as physicochemical. The procedure: Absorption spectra (λabs), emission spectra (λem), molar extinction coefficient (ε) and quantum efficiency of compounds 1 to 8 obtained in Preparation Examples 1 to 4, and commercially available SYBR® safe were measured and shown in Table 1 below.
Absorption spectra (λabs), emission spectra (λem), molar extinction coefficient (ε) and quantum efficiency of Compounds 36 to 39 obtained in Preparation Examples 6 and 7 and commercially available SYBR® safe were measured and shown in Table 2 below.

The test system of another data set is DNA. As to the kind of experiment: Absorption and emission spectra and quantum efficiency in the presence of DNA. It counts as physicochemical. The procedure:
Absorption spectra (λabs), emission spectra (λem) and quantum efficiency measured in the presence of DNA with compounds 1 to 8 and 36 to 39, and commercially available SYBR® safe were measured and are shown in Table 3 below.

In a further data set the test system is Hela cells. Put plainly: Cell permeability test. The class given is cell-based. The conditions noted are these: 1 μM, 37° C., 30 minutes, microscope. The procedure: Hela cells were cultured in MEM medium containing 10% fetal bovine serum (FBS) and 1% penicillin/streptomycin (10,000 units penicillin and 10,000 μg/mL streptomycin, Invitrogen) under a humidified atmosphere of CO2 at 37° C. Hela cells were washed with medium No. 3, and 1 μM of SYBR® safe and Compound 6 were treated with Hela Cells and cultured at 37° C. for 30 minutes.

Data set [2] concerns Salmonella typhimurium TA98 strain. Put plainly: Ames test with S9 mixture. To be noted: for Number of colonies per plate: TA98, S9 mixture.

“Also recorded” adds a separate entry of the source.

For `CCCN(CCCN(C)C)c1cc(/C=C2/Sc3ccccc3N2C)c2ccccc2[n+]1-c1ccccc1` [SYBR ® green I], in “Photobleaching test”, the “half-life (photobleaching)” value is 5.5 h.

With `CCC[n+]1ccc(/C=C2\Sc3ccccc3N2C)c2ccccc21` [SYBR ® safe, reference compound], in data set [1] (DMSO), the Quantum efficiency was determined as 0.006, the “ε (molar extinction coefficient)” value is recorded as 77,000 M^−1cm^−1 and the λabs came out at 509 nm. Further, in data set [1] (buffer), the Quantum efficiency is 0.006, the “ε (molar extinction coefficient)” value was 57,000 M^−1cm^−1 and the λabs was determined as 502 nm. Moreover, in the data set on DNA, the Quantum efficiency amounted to 0.021, the λabs is listed as 503 nm and the λem is on record as 535 nm. In addition, in the data set with Hela cells, the cell permeability entry is reported as “shows cell permeability”. Also, the “Number of colonies per plate” value in data set [2] (1.6 μg/plate) was found to be 81 ± 7.

In the case of `O=C(CCCCCN1C=CC2=C3c4sc5ccc(Cl)cc5[n+]4CCC3Oc3cccc1c32)NCCOCCOCCNC(=O)CCCCCN1C=CC2=C3c4sc5ccc(Cl)cc5[n+]4CCC3Oc3cccc1c32` (centres unmarked) [Compound 6], in data set [1] (DMSO), the Quantum efficiency is 0.62, the “ε (molar extinction coefficient)” value was 70,000 M^−1cm^−1, the λabs is on record as 517 nm and the λem was 563 nm. In addition, in data set [1] (buffer), the Quantum efficiency worked out at 0.04, the “ε (molar extinction coefficient)” value is 60,000 M^−1cm^−1, the λabs was determined as 484 nm and the λem is recorded as 564 nm. Moreover, in the data set with DNA, the Quantum efficiency is 0.73, the λabs was determined as 517 nm and the λem is on record as 538 nm. Moreover, the “Number of colonies per plate” value in data set [2] (8 μg/plate) is given as 24 ± 6. For the same compound, the “Number of colonies per plate” value in data set [2] (40 μg/plate) was determined as 57 ± 3. The “genotoxicity (Ames test), in words” value in data set [2] (TA98, S9 metabolic activity) is “no significant increase in colony counts; also recorded: lower genotoxicity than SYBR® safe”.
